Experimental data reported in publication PMC8320107 (ACS Omega, 2021).
Read-outs that look alike come from different tables or passages of the source.

Biological target: AChE (Homo sapiens, UniProt P22303)
Test: In vitro AChE inhibitory activity, Ellman's colorimetric method
Assay type: biochemical
Details: for relative potency (%): AChE inhibitory potency relative to donepezil hydrochloride (100)
[1] = in vitro AChE inhibition, mean ± standard error of the mean of three experiments

Chain of AChE (P22303 32-614): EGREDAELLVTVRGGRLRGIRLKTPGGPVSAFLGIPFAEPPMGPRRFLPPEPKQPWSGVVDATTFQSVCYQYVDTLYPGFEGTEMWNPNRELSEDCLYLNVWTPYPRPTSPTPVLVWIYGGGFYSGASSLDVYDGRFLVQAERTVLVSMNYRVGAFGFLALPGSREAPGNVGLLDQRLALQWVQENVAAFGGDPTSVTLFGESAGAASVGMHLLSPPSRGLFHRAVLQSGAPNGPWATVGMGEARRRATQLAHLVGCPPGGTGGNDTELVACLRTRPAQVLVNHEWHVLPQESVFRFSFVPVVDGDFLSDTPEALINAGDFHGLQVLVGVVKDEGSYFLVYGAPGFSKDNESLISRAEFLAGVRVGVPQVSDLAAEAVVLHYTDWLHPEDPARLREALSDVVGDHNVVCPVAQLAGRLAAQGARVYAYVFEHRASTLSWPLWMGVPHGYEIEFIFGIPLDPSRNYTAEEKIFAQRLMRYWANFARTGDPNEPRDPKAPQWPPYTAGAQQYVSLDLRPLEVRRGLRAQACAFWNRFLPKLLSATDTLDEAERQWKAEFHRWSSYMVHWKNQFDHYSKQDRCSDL

## Cc1ccc(C=C2SC(Nc3nc(-c4ccc(C)cc4)cs3)=NC2=O)cc1 [Compound 8, 2-[4-(p-Tolylthiazol-2-yl)amino]-5-(4-methylbenzylidene)-4,5-dihydrothiazole-4-one]
[1]
  IC50: 501 ± 14 nM

## Cc1ccc(-c2csc(NC3=NC(=O)C(=Cc4ccc(Cl)cc4Cl)S3)n2)cc1 [Compound 12, 2-[4-(p-Tolylthiazol-2-yl)amino]-5-(2,4-dichlorobenzylidene)-4,5-dihydrothiazole-4-one]
[1]
  IC50: 336 ± 9.1 nM

## Cc1ccc(-c2csc(NC3=NC(=O)C(=Cc4ccc(Br)s4)S3)n2)cc1 [Compound 14, 2-[4-(p-Tolylthiazol-2-yl)amino]-5-[(5-bromothiophen-2-yl)methylene]-4,5-dihydrothiazole-4-one]
[1]
  IC50: 380 ± 10 nM

## COc1ccc(-c2csc(NC3=NC(=O)C(=Cc4ccc(C)cc4)S3)n2)cc1 [Compound 15, 2-[4-(4-Methoxyphenylthiazol-2-yl)amino]-5-(4-methylbenzylidene)-4,5-dihydrothiazole-4-one]
[1]
  IC50: 375 ± 10 nM

## COc1ccc(-c2csc(NC3=NC(=O)C(=Cc4ccc(OC)c(OC)c4)S3)n2)cc1 [Compound 17, 2-[4-(4-Methoxyphenylthiazol-2-yl)amino]-5-(3,4-dimethoxybenzylidene)-4,5-dihydrothiazole-4-one]
  relative potency (%): 31.26%
[1]
  IC50: 176 ± 4.8 nM

## COc1ccc(-c2csc(NC3=NC(=O)C(=Cc4ccc(Cl)cc4)S3)n2)cc1 [Compound 18, 2-[4-(4-Methoxyphenylthiazol-2-yl)amino]-5-(4-chlorobenzylidene)-4,5-dihydrothiazole-4-one]
  relative potency (%): 28.43%
[1]
  IC50: 193 ± 5.3 nM

## COc1ccc(-c2csc(NC3=NC(=O)C(=Cc4ccc(Cl)cc4Cl)S3)n2)cc1 [Compound 19, 2-[4-(4-Methoxyphenylthiazol-2-yl)amino]-5-(2,4-dichlorobenzylidene)-4,5-dihydrothiazole-4-one]
[1]
  IC50: 731 ± 20 nM

## COc1ccc(-c2csc(NC3=NC(=O)C(=Cc4cccs4)S3)n2)cc1 [Compound 20, 2-[4-(4-Methoxyphenylthiazol-2-yl)amino]-5-[(thiophen-2-yl)methylene]-4,5-dihydrothiazole-4-one]
[1]
  IC50: 260 ± 7.1 nM

## COc1ccc(-c2csc(NC3=NC(=O)C(=Cc4ccc(Br)s4)S3)n2)cc1 [Compound 21, 2-[4-(4-Methoxyphenylthiazol-2-yl)amino]-5-[(5-bromothiophen-2-yl)methylene]-4,5-dihydrothiazole-4-one]
  relative potency (%): 29.28%
[1]
  IC50: 188 ± 5.1 nM

## CCN=C1SCC(=O)N1c1nc(-c2ccc(C)cc2)cs1 [Compound 28, 2-Ethylimino-3-[4-(p-tolyl)thiazol-2-yl]thiazolidin-4-one]
  IC50: 478 ± 13 nM

## Cc1ccc(-c2csc(N3C(=O)CSC3=NCc3ccccc3)n2)cc1 [Compound 29, 2-Benzylimino-3-[4-(p-tolyl)thiazol-2-yl]thiazolidin-4-one]
  IC50: 188 ± 5.1 nM

## CCN=C1SCC(=O)N1c1nc(-c2ccc(OC)cc2)cs1 [Compound 30, 2-Ethylimino-3-[4-(4-methoxyphenyl)thiazol-2-yl]thiazolidin-4-one]
  IC50: 346 ± 9.4 nM

## COc1ccc(-c2csc(N3C(=O)CSC3=NCc3ccccc3)n2)cc1 [Compound 31, 2-Benzylimino-3-[4-(4-methoxyphenyl)thiazol-2-yl]thiazolidin-4-one]
  IC50: 152 ± 4.1 nM
  relative potency (%): 36.08%

## COc1ccc(-c2csc(N3C(=O)C(=Cc4ccc(OC)c(OC)c4)SC3=NCc3ccccc3)n2)cc1 [Compound 32, 2-(Benzylimino)-5-(3,4-dimethoxybenzylidene)-3-[4-(4-methoxyphenyl)thiazol-2-yl]thiazolidin-4-one]
  IC50: 450 ± 12 nM

## COc1ccc(-c2csc(N3C(=O)C(=Cc4ccc(Cl)cc4Cl)SC3=NCc3ccccc3)n2)cc1 [Compound 33, 2-(Benzylimino)-5-(2,4-dichlorobenzylidene)-3-[4-(4-methoxyphenyl)thiazol-2-yl]thiazolidin-4-one]
  IC50: 188 ± 5.1 nM
  relative potency (%): 29.27%
